From PubChem BioAssay (NCI)
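Growth conditions: 96-well plates. Treatment: test compound, 48 hours, 5 concentrations. Analysis: linear interpolation between bracketing concentrations; unreached endpoints set to highest concentration. TGI denotes the concentration required for complete inhibition of growth.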

Key:
Test in all cases: NCI tumour cell line growth inhibition, 48 h
786-0 renal = test system: 786-0 renal
A498 renal = test system: A498 renal
A549 NSCLC = test system: A549 NSCLC
ACHN renal = test system: ACHN renal
BT-549 breast = test system: BT-549 breast
CAKI-1 renal = test system: CAKI-1 renal
CCRF-CEM leukemia = test system: CCRF-CEM leukemia
COLO 205 colon = test system: COLO 205 colon
DU-145 prostate = test system: DU-145 prostate
EKVX NSCLC = test system: EKVX NSCLC
HCC-2998 colon = test system: HCC-2998 colon
HCT-116 colon = test system: HCT-116 colon
HCT-15 colon = test system: HCT-15 colon
HL-60(TB) leukemia = test system: HL-60(TB) leukemia
HOP-62 NSCLC = test system: HOP-62 NSCLC
HOP-92 NSCLC = test system: HOP-92 NSCLC
HS 578T breast = test system: HS 578T breast
HT29 colon = test system: HT29 colon
IGROV1 ovarian = test system: IGROV1 ovarian
K-562 leukemia = test system: K-562 leukemia
KM12 colon = test system: KM12 colon
LOX IMVI melanoma = test system: LOX IMVI melanoma
M14 melanoma = test system: M14 melanoma
MALME-3M melanoma = test system: MALME-3M melanoma
MDA-MB-231 breast = test system: MDA-MB-231 breast
MDA-MB-435 = test system: MDA-MB-435
MDA-N = test system: MDA-N
MOLT-4 leukemia = test system: MOLT-4 leukemia
NCI-H226 lung = test system: NCI-H226 lung
NCI-H23 lung = test system: NCI-H23 lung
NCI-H460 lung = test system: NCI-H460 lung
NCI-H522 lung = test system: NCI-H522 lung
NCI/ADR-RES ovarian = test system: NCI/ADR-RES ovarian
OVCAR-5 ovarian = test system: OVCAR-5 ovarian
OVCAR-8 ovarian = test system: OVCAR-8 ovarian
PC-3 prostate = test system: PC-3 prostate
RPMI-8226 leukemia = test system: RPMI-8226 leukemia
SF-268 CNS = test system: SF-268 CNS
SF-295 CNS = test system: SF-295 CNS
SF-539 CNS = test system: SF-539 CNS
SK-MEL-2 melanoma = test system: SK-MEL-2 melanoma
SK-MEL-28 melanoma = test system: SK-MEL-28 melanoma
SK-MEL-5 melanoma = test system: SK-MEL-5 melanoma
SK-OV-3 ovarian = test system: SK-OV-3 ovarian
SN12C renal = test system: SN12C renal
SNB-19 CNS = test system: SNB-19 CNS
SNB-75 CNS = test system: SNB-75 CNS
SR leukemia = test system: SR leukemia
SW-620 colon = test system: SW-620 colon
T-47D breast = test system: T-47D breast
TK-10 renal = test system: TK-10 renal
U251 CNS = test system: U251 CNS
UACC-257 melanoma = test system: UACC-257 melanoma
UACC-62 melanoma = test system: UACC-62 melanoma
UO-31 renal = test system: UO-31 renal
MCF7 breast = test system: MCF7 breast
OVCAR-3 ovarian = test system: OVCAR-3 ovarian
RXF 393 renal = test system: RXF 393 renal

C=C1CC(Cn2cc(C)c(=O)[nH]c2=O)(c2ccc(Cl)cc2)OC1=O (centres undefined)
TGI (786-0 renal): 2.99 µM | TGI (A498 renal): 22.8 µM | TGI (A549 NSCLC): 32.2 µM | TGI (ACHN renal): 8 µM | TGI (BT-549 breast): 2.86 µM | TGI (CAKI-1 renal): 3.93 µM | TGI (CCRF-CEM leukemia): 4.01 µM | TGI (COLO 205 colon): 2.96 µM | TGI (DU-145 prostate): 18.3 µM | TGI (EKVX NSCLC): 18.7 µM | TGI (HCC-2998 colon): 8.43 µM | TGI (HCT-116 colon): 3.29 µM | TGI (HCT-15 colon): 2.37 µM | TGI (HL-60(TB) leukemia): 3.93 µM | TGI (HOP-62 NSCLC): 33 µM | TGI (HOP-92 NSCLC): 1.58 µM | TGI (HS 578T breast): 25.5 µM | TGI (HT29 colon): 3.64 µM | TGI (IGROV1 ovarian): 3.41 µM | TGI (K-562 leukemia): 21.1 µM | TGI (KM12 colon): > 43 µM | TGI (LOX IMVI melanoma): 3.2 µM | TGI (M14 melanoma): 2.54 µM | TGI (MALME-3M melanoma): 4.89 µM | TGI (MDA-MB-231 breast): 9.82 µM | TGI (MDA-MB-435): 15.1 µM | TGI (MDA-N): 11.6 µM | TGI (MOLT-4 leukemia): 3.87 µM | TGI (NCI-H226 lung): 30.6 µM | TGI (NCI-H23 lung): 10.4 µM | TGI (NCI-H460 lung): 36.1 µM | TGI (NCI-H522 lung): 1.35 µM | TGI (NCI/ADR-RES ovarian): 17.9 µM | TGI (OVCAR-5 ovarian): 29.4 µM | TGI (OVCAR-8 ovarian): 15.4 µM | TGI (PC-3 prostate): 12.5 µM | TGI (RPMI-8226 leukemia): 1.95 µM | TGI (SF-268 CNS): 42.1 µM | TGI (SF-295 CNS): > 34 µM | TGI (SF-539 CNS): 26 µM | TGI (SK-MEL-2 melanoma): 5.48 µM | TGI (SK-MEL-28 melanoma): 4.44 µM | TGI (SK-MEL-5 melanoma): 6.43 µM | TGI (SK-OV-3 ovarian): 28.1 µM | TGI (SN12C renal): 21.2 µM | TGI (SNB-19 CNS): > 55.5 µM | TGI (SNB-75 CNS): 15.4 µM | TGI (SR leukemia): 8.97 µM | TGI (SW-620 colon): 3.38 µM | TGI (T-47D breast): 5.19 µM | TGI (TK-10 renal): 3.61 µM | TGI (U251 CNS): 30 µM | TGI (UACC-257 melanoma): 3.75 µM | TGI (UACC-62 melanoma): 7.48 µM | TGI (UO-31 renal): 25.9 µM

Cn1c(N)c(Cc2ccc(Cl)cc2)c(=O)[nH]c1=O
TGI (786-0 renal): > 100 µM | TGI (A498 renal): > 100 µM | TGI (A549 NSCLC): > 100 µM | TGI (ACHN renal): > 100 µM | TGI (BT-549 breast): > 100 µM | TGI (CAKI-1 renal): > 100 µM | TGI (CCRF-CEM leukemia): > 100 µM | TGI (COLO 205 colon): > 100 µM | TGI (DU-145 prostate): > 100 µM | TGI (EKVX NSCLC): > 100 µM | TGI (HCT-116 colon): > 100 µM | TGI (HCT-15 colon): > 100 µM | TGI (HL-60(TB) leukemia): > 100 µM | TGI (HOP-62 NSCLC): > 100 µM | TGI (HOP-92 NSCLC): > 100 µM | TGI (HS 578T breast): > 100 µM | TGI (HT29 colon): > 100 µM | TGI (IGROV1 ovarian): > 100 µM | TGI (K-562 leukemia): > 100 µM | TGI (KM12 colon): > 100 µM | TGI (LOX IMVI melanoma): > 100 µM | TGI (M14 melanoma): > 100 µM | TGI (MALME-3M melanoma): > 100 µM | TGI (MCF7 breast): > 100 µM | TGI (MDA-MB-231 breast): > 100 µM | TGI (MDA-MB-435): > 100 µM | TGI (MDA-N): > 100 µM | TGI (MOLT-4 leukemia): > 100 µM | TGI (NCI-H226 lung): > 100 µM | TGI (NCI-H23 lung): > 100 µM | TGI (NCI-H522 lung): > 100 µM | TGI (NCI/ADR-RES ovarian): > 100 µM | TGI (OVCAR-3 ovarian): > 100 µM | TGI (OVCAR-5 ovarian): > 100 µM | TGI (OVCAR-8 ovarian): > 100 µM | TGI (RPMI-8226 leukemia): > 100 µM | TGI (RXF 393 renal): > 100 µM | TGI (SF-268 CNS): > 100 µM | TGI (SF-295 CNS): > 100 µM | TGI (SF-539 CNS): > 100 µM | TGI (SK-MEL-2 melanoma): > 100 µM | TGI (SK-MEL-28 melanoma): > 100 µM | TGI (SK-MEL-5 melanoma): > 100 µM | TGI (SK-OV-3 ovarian): > 100 µM | TGI (SN12C renal): > 100 µM | TGI (SNB-19 CNS): > 100 µM | TGI (SNB-75 CNS): > 100 µM | TGI (SR leukemia): > 100 µM | TGI (SW-620 colon): > 100 µM | TGI (T-47D breast): > 100 µM | TGI (TK-10 renal): > 100 µM | TGI (UACC-257 melanoma): > 100 µM | TGI (UACC-62 melanoma): > 100 µM | TGI (UO-31 renal): > 100 µM
